Data published in patent US8937038B2, “Composition containing peptide ligand that bonds with CXCR2 for treating infective and inflammatory diseases” (priority 2010, dated 2015).
Where no end group is shown, it is not given here. The star is where a group is joined. Palmitoyl = CCCCCCCCCCCCCCCC(=O)*

Assays:
mouse neutrophils = assay: H2O2 production in mouse neutrophils; type: cell-based; details: neutrophils pretreated with SB225002 30 minutes, then Ac-PGP 20 μM; FIG. 13
Description: Mouse neutrophils were separated from peripheral blood using a Histopaque-1077 solution (Sigma) (Bae Y S et al. 2001 Blood. 97: 2854-2862). The neutrophils separated from normal mice were stimulated with various concentrations of Ac-PGP for 10 minutes in the presence of cytochalasin B (5 μM). To identify the role of mCXCR2, the neutrophils were pre-incubated in various concentrations of SB225002 or a vehicle (DMSO) for 30 minutes in a stationary environment, and Ac-PGP (20 μM) was added, and incubated for 10 minutes. H2O2 in a supernatant was measured using a H2O2 measurement kit (Molecular probe).
A death rate by CLP is correlated with the number of bacterial colonies in a peritoneal fluid. Therefore, an effect of the Ac-PGP on removal of bacteria in a peritoneal fluid was examined. […] In vitro disinfection activity of the Ac-PGP was examined using neutrophils derived from a mouse. The mouse neutrophils were kept for an hour to phagocytize E. coli, and then stimulated with various concentrations of Ac-PGP (0.1 to 100 nM) for 20 minutes. […] A reactive oxygen species such as hydrogen peroxide was known as an important molecule participating in the disinfection activity. Therefore, an effect of Ac-PGP on production of hydrogen peroxide in the mouse neutrophils was examined. […]

human neutrophils = assay: Cytokine production by LPS-stimulated human neutrophils; type: cell-based; details: human neutrophils stimulated with LPS
Text: (§1) All kinds of protocols used in human beings were approved by the Institutional Review Board (IRB) at Dong-A University Hospital, and prior consents were obtained from all blood donors. Peripheral blood was collected from healthy donors, and human peripheral monocytes were separated using a Histopaque-1077 gradient. Neutrophils were separated through methods such as dextran precipitation of red blood cell, hypotonic lysis, and usage of lymphocyte isolation medium gradient, as known in the related art (Bae, Y. S. et al. Blood 97, 2854-2862(2001)). The separated human leukocytes were used immediately.
(§2) Next, an effect of the Ac-PGP on production of cytokines by human neutrophils and PBMCs was examined. […] A human CXCR2 chemokine agonist CXCL8 had few effects on production of TNF-α or IFN-γ stimulated with LPS (FIG. 28 to FIG. 31). Therefore, the Ac-PGP could improve both antiseptic activities in leukocytes derived from human beings and mice.

PBMCs = assay: Cytokine production by LPS-stimulated human PBMCs; type: cell-based; details: human PBMCs stimulated with LPS
Text: as §1, §2

[1] = test system: cecal ligation and puncture (CLP)-septic mice; details: Kuliopulos et al.; cited from earlier work
mouse splenocytes = assay: Cytokine release from LPS-stimulated mouse splenocytes (ELISA); type: cell-based; details: LPS 100 ng/ml
Description: Mouse splenocytes were positioned on an RPMI 1640 medium including 5% FBS in a 96-well plate, and maintained at 37° C. in a 5% CO2 incubator. Thereafter, the splenocytes were stationarily incubated with LPS (100 ng/ml) for 24 hours in the presence or absence of Ac-PGP. After 30 minutes, LPS was added to the cells and collected a cell-free supernatant, and then the supernatant was centrifuged, and TNF-α, IL-6 and IFN-γ were measured using ELISA (BD Biosciences Pharmingen). In regards to the effect of IFN-γ on production of pro-inflammatory cytokines induced by LPS, 5×10^5 cells/ml of the mouse splenocytes were stimulated with 100 ng/ml of LPS in the presence or absence IFN-γ (R&D) (at various concentrations of 1, 10, 100 and 1,000 IU/ml). Amounts of TNF-α and IL-6 were measured 20 hours after stationary incubation using ELISA (BD Biosciences Pharmingen).
An effect of the Ac-PGP on a pro-inflammatory cytokine in a peritoneal fluid by CLP was determined from 4 to 72 hours after the CLP. The CLP induced a remarkable increase in levels of pro-inflammatory cytokines (TNF-α, IL-1β and IL-6) within 24 hours (FIGS. 14 to 16). Injection of the Ac-PGP in a sepsis model by the CLP induced a remarkable change in levels of the cytokines. […] To evaluate an effect of the Ac-PGP on production of the pro-inflammatory cytokines by the LPS, in vitro production of TNF-α and IL-6 by the mouse splenocytes was evaluated. Direct release of the TNF-α and IL-6 from the mouse splenocytes by the LPS was suppressed by in vitro treatment with the Ac-PGP (FIGS. 17 and 18).
Since it was confirmed that the administration of the Ac-PGP improved in vivo production of IFN-γ, a direct effect of the Ac-PGP on production of IFN-γ by splenocytes was examined. […] Also, an effect of IFN-γ on production of the pro-inflammatory cytokines was also examined.

Molecule: O=C(Nc1ccc([N+](=O)[O-])cc1O)Nc1ccccc1Br [SB225002, reference compound]
- production of hydrogen peroxide by the Ac-PGP (mouse neutrophils): completely suppressed

Molecule: CXCL8: human CXCR2 chemokine agonist
- production of TNF-α (human neutrophils; FIG. 28): few effects
- production of IFN-γ (human neutrophils; FIG. 30): few effects
- production of TNF-α (PBMCs; FIG. 29): few effects
- production of IFN-γ (PBMCs; FIG. 31): few effects

Molecule: pal-RTLFKAHMGQKHR (Palmitoyl-RTLFKAHMGQKHR) [x1/2pal-3]
- survival rate [1]: remarkable increase in survival rate

B1: IFN-γ: type 1 cytokine (R&D) added to mouse splenocytes at 1 to 1,000 IU/ml (protein, UniProt P01580 23-155, looked up)
Interferon gamma: HGTVIESLESLNNYFNSSGIDVEEKSLFLDIWRNWQKDGDMKILQSQIISFYLRLFEVLKDNQAISNNISVIESHLITTFFSNSKAKKDAFMSIAKFEVNNPQVQRQAFNELIRVVHQLLPESSLRKRKRSRC
- production of TNF-α by LPS (mouse splenocytes; 5×10^5 cells/ml, IFN-γ 1, 10, 100 and 1,000 IU/ml, 20 hours, FIG. 25): relieved production
- production of IL-6 by LPS (mouse splenocytes; 5×10^5 cells/ml, IFN-γ 1, 10, 100 and 1,000 IU/ml, 20 hours, FIG. 26): relieved production

B2: KC: counterpart of mouse IL-8; mouse chemokine activating CXCR2 (protein, UniProt P12850 25-96, looked up)
Growth-regulated alpha protein: APIANELRCQCLQTMAGIHLKNIQSLKVLPSGPHCTQTEVIATLKNGREACLDPEAPLVQKIVQKMLKGVPK
- release of TNF-α by LPS (mouse splenocytes; 24 hours, FIG. 17): could not suppress
- release of IL-6 by LPS (mouse splenocytes; 24 hours, FIG. 18): could not suppress
